# According to the supplement of paper PMC8837787:
# Tested on: Saccharomyces cerevisiae ABC16-Green Monster
# Assay: growth inhibition at single dose (up to 150 µM), below the 70% cut-off for dose-response; higher = more potent
# Conditions: 18 h; 30 °C; YPD
# Procedure, shortened: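 Percent growth inhibition is the reported value. Drug-sensitive S. cerevisiae ABC16-Green Monster cultures in log phase (OD600 0.1–0.2), 200 µl per well in 96-well plates, received each library compound once at 150 µM in biological duplicates, with untreated cultures run alongside. Growth was followed by OD600 at 0 h and after 18 h at 30 °C. Dose-response was not done for compounds below 70% in both replicates.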
row,SMILES,growth inhibition at single dose
1,CCc1ccc(S(=O)(=O)Nc2cc(CN3CCN(CCC(C)C)CC3)ccc2C)cc1,< 70%
2,OC(CNCc1ccccc1)Cn1c2ccccc2c2ccccc21 (stereo not given),< 70%
3,Cc1ccc(-c2cc(C(=O)Nc3ccc(S(=O)(=O)N4CCCCC4)cc3)[nH]n2)c(O)c1,< 70%
4,C=C(C)COc1ccc(-c2n[nH]c(C)c2-c2ccc(OC)c(OC)c2)c(O)c1,< 70%
5,CCOC(=O)c1c[nH]c2c(C)cc(Cl)cc2c1=O,< 70%
6,CC(C)CNC(=O)c1c(N)n(CCc2ccccc2F)c2nc3ccccc3nc12,< 70%
7,FC(F)(F)c1cccc(CNC2CCN(CCc3ccccc3)CC2)c1,< 70%
8,COc1cc2c(cc1OC)CN(CCNc1ncnc3sccc13)CC2,< 70%
9,Cc1c(C)c(C)c(S(=O)(=O)Nc2ccc3c[nH]nc3c2)c(C)c1C,< 70%
10,COc1ccc(N(CCc2cccc(C)n2)C(=O)C2CCCCC2)cc1,< 70%
11,COc1ccc(C(=O)Nc2ccc(Cl)cc2C(=O)Nc2ccncc2)cc1,< 70%
12,Cc1cc(N2CCN(CCO)CC2)n2ncc(-c3ccc(F)cc3)c2n1,< 70%
13,C/N=c1\scc(-c2ccccc2OC)n1/N=C/c1ccc[nH]1,< 70%
14,CNC(=O)c1ccc2n1CCN(C(=O)OCc1ccccc1)C2C (stereo not given),< 70%
15,O=S(=O)(NC1CCN(c2nn3cc(-c4ccccc4)nc3s2)CC1)c1cccs1,< 70%
16,COc1ccc(NC(=O)c2ccoc2)cc1S(=O)(=O)Nc1ccc(Br)cc1,< 70%
17,CN(N=O)C1=C(NC2CCCCC2)C(=O)c2ccccc2C1=O,< 70%
18,Cc1ccnc(NC(=O)C2CC(=O)N(c3ccc(C)c(C)c3)C2)c1 (stereo not given),< 70%
19,c1ccc2cc3c(Nc4ccc(N5CCOCC5)cc4)ccnc3cc2c1,< 70%
20,Cc1ccccc1C(=O)OCC(=O)c1cc(C)n(Cc2ccco2)c1C,< 70%
21,CC(=O)c1sc(NC(=O)Nc2ccc(C)cc2C)nc1C,< 70%
22,O=C(Nc1ccc(Oc2ccc3ccccc3c2)cc1)c1ccccc1,< 70%
23,CCOC(=O)c1c(C)[nH]c(C(=O)CSc2nccn2C)c1C,< 70%

row,SMILES,growth inhibition at single dose
1,C[C@]12CC[C@H](O)C[C@H]1CCC1C2[C@H](O)C[C@]2(C)[C@@H](C3=CC(=O)OC3)CC[C@]12O (stereo not given in full),< 70%
2,COc1cc(/C=N/NC(=O)c2ccccc2NS(=O)(=O)c2cccs2)ccc1OCCC(C)C,< 70%
3,CC1(c2ccccc2)Nc2ccccc2-c2nc3ccccc3n21 (stereo not given),< 70%
4,Cn1c(Oc2cccc3c2OC(C)(C)C3)c(C#N)c(=O)n(C)c1=O,< 70%
5,CC(C)NS(=O)(=O)c1cccc(CNc2ncnc3ccccc23)c1,< 70%
6,CC1=C(CC(=O)c2cccc([N+](=O)[O-])c2)C(=O)c2ccccc2C1=O,< 70%
7,O=C(Nc1ccc(N2CCCCCC2)cc1)c1ccc[nH]1,< 70%
8,O=C(c1ccc(F)cc1)N(CCNc1ccccc1)c1ccccc1,< 70%
9,CC(=O)c1c(C)[nH]c(C(=O)Nc2ccc(Oc3ccccc3Cl)cc2)c1C,< 70%
10,O=C(CSc1nnc(C2CC2)o1)NCCC1=CCCCC1,< 70%
11,O=C(Nc1ccc(Cl)cc1C(=O)Nc1ccncc1)c1ccc(Cl)cc1Cl,< 70%
12,Cc1cc(C(=O)C(C)Sc2nnnn2C2CC2)c(C)n1-c1ccccc1 (stereo not given),< 70%
13,O=C(NC(=O)c1csnn1)Nc1cc(C(F)(F)F)cc(C(F)(F)F)c1,< 70%
14,O=C(NC1CCN(Cc2ccccc2)CC1)c1cc(C(=O)NC2CCN(Cc3ccccc3)CC2)cc(C(=O)NC2CCN(Cc3ccccc3)CC2)c1,< 70%
15,Cc1ccc(S(=O)(=O)Nc2ccc(CN3CCN(C(=O)c4cccc(C#N)c4)CC3)cc2)cc1,< 70%
16,O=C(NCC(c1ccsc1)N1CCCCCC1)c1ccc(C(F)(F)F)cc1 (stereo not given),< 70%
17,CC(C)(C)NS(=O)(=O)c1cccc2c(N)cccc12,< 70%
18,COc1cc(C(=O)Nc2nc3c(cc4c5c(cccc53)CC4)s2)cc(OC)c1OC,< 70%
19,O=C(c1c[nH]c2ccccc12)C(c1ccccc1)N1CCN(CC(=O)N2CCCC2)CC1 (stereo not given),< 70%
20,Cc1cc(=O)n2nc(-c3ccc(C(C)(C)C)cc3)cc2[nH]1,< 70%
21,Cc1cc(C(=O)Nc2cnn(Cc3ccc(Cl)cc3Cl)c2)no1,< 70%
22,Cc1ccc(CC(=O)NCc2ccc(C#N)cc2)cc1,< 70%
